Measurements taken from publication PMC3382598, “Functional Metagenomics Unveils a Multifunctional Glycosyl Hydrolase from the Family 43 Catalysing the Breakdown of Plant Polymers in the Calf Rumen” (PLoS ONE, 2012).

Tested on: T1, R_09-02
T1 construct: recombinant in E. coli, His6-tag purification; tetramer approx. 200 kDa; second CDS of 3264 bp r_09 insert; W82, H301, R327 conserved residues; N-terminal GH43 domain plus C-terminal beta-sandwich (CBM6-like)
Assay: released xylose, D-xylose assay kit; Michaelis-Menten fit
Assay type: biochemical
Settings: pH 6.0 (20 mM sodium acetate), 34°C; read-out: K m (mM)^1
Source text: released xylose, D-xylose assay kit; Michaelis-Menten fit on R_09-02

Q: Which Km does the source give for `OC1OC[C@@H](O[C@@H]2OC[C@@H](O)[C@H](O)[C@H]2O)[C@H](O)[C@H]1O` (stereo partly drawn) [1,4-β-Xylobiose] here?
A: 0.012 ± 0.002 mM

Q: How did the Km turn out when `OC1[C@H](O)CO[C@@H](O[C@@H]2CO[C@@H](O[C@@H]3CO[C@@H](O[C@@H]4CO[C@@H](O[C@@H]5COC(O)[C@H](O)[C@H]5O)[C@H](O)C4O)[C@H](O)C3O)[C@H](O)C2O)[C@@H]1O` (stereo partly drawn) [1,4-β-Xylopentaose] was run?
A: 1.58 ± 0.19 mM

Q: How did the Km turn out when `OC1OC[C@@H](O[C@@H]2OC[C@@H](O[C@@H]3OC[C@@H](O[C@@H]4OC[C@@H](O)[C@H](O)[C@H]4O)[C@H](O)[C@H]3O)[C@H](O)[C@H]2O)[C@H](O)[C@H]1O` (stereo partly drawn) [1,4-β-Xylotetraose] was run?
A: 0.33 ± 0.07 mM

Q: With `OC1OC[C@@H](O[C@@H]2OC[C@@H](O[C@@H]3OC[C@@H](O)[C@H](O)[C@H]3O)[C@H](O)[C@H]2O)[C@H](O)[C@H]1O` (stereo partly drawn) [1,4-β-Xylotriose] as the compound, how does the Km read?
A: 0.29 ± 0.02 mM

Tested on: T1, R_09-02
Assay: released arabinose, lactose/galactose (Rapid) assay kit; Michaelis-Menten fit
Assay type: biochemical
Settings: pH 6.0 (20 mM sodium acetate), 34°C; read-out: K m (mM)^1
Source text: released arabinose, lactose/galactose (Rapid) assay kit; Michaelis-Menten fit on R_09-02

Q: Which Km does the source give for `OC[C@@H]1O[C@@H](OC[C@@H]2OC(O)[C@H](O)[C@H]2O)[C@H](O)[C@H]1O` (stereo partly drawn) [1,5-α-L-Arabinobiose] here?
A: 0.027 ± 0.01 mM

Q: Which Km does the source give for `OC[C@@H]1O[C@@H](OC[C@@H]2O[C@@H](OC[C@@H]3O[C@@H](OC[C@@H]4OC(O)[C@H](O)[C@H]4O)[C@H](O)[C@H]3O)[C@H](O)[C@H]2O)[C@H](O)[C@H]1O` (stereo partly drawn) [1,5-α-L-Arabinotetraose] here?
A: 4.23 ± 0.74 mM

Q: How did the Km turn out when `OC[C@@H]1O[C@@H](OC[C@@H]2O[C@@H](OC[C@@H]3OC(O)[C@H](O)[C@H]3O)[C@H](O)[C@H]2O)[C@H](O)[C@H]1O` (stereo partly drawn) [1,5-α-L-Arabinotriose] was run?
A: 0.1 ± 0.05 mM

Tested on: T1, R_09-02
Assay: released glucose, glucose oxidase kit; Michaelis-Menten fit
Assay type: biochemical
Settings: pH 6.0 (20 mM sodium acetate), 34°C; read-out: K m (mM)^1
Source text: released glucose, glucose oxidase kit; Michaelis-Menten fit on R_09-02

Q: With `OC[C@H]1O[C@@H](O[C@H]2[C@H](O)[C@@H](O)C(O)O[C@@H]2CO)[C@H](O)[C@@H](O)[C@H]1O` (some centres unmarked) [Lactose] as the compound, how does the Km read?
A: 0.05 ± 0.0039 mM

Q: Which Km does the source give for `OC[C@H]1O[C@H](O[C@H]2[C@H](O)[C@@H](O)[C@@H](O[C@H]3[C@H](O)[C@@H](O)[C@@H](O[C@H]4[C@H](O)[C@@H](O)[C@@H](O[C@H]5[C@H](O)[C@@H](O)C(O)O[C@@H]5CO)O[C@@H]4CO)O[C@@H]3CO)O[C@@H]2CO)[C@H](O)[C@@H](O)[C@@H]1O` (some centres unmarked) [Maltopentaose] here?
A: 1.64 ± 0.21 mM

Q: With `OC[C@H]1O[C@H](O[C@H]2[C@H](O)[C@@H](O)C(O)O[C@@H]2CO)[C@H](O)[C@@H](O)[C@@H]1O` (some centres unmarked) [Maltose] as the compound, how does the Km read?
A: 2.57 ± 0.19 mM

Q: How did the Km turn out when `OC[C@H]1O[C@H](O[C@H]2[C@H](O)[C@@H](O)[C@@H](O[C@H]3[C@H](O)[C@@H](O)[C@@H](O[C@H]4[C@H](O)[C@@H](O)C(O)O[C@@H]4CO)O[C@@H]3CO)O[C@@H]2CO)[C@H](O)[C@@H](O)[C@@H]1O` (some centres unmarked) [Maltotetraose] was run?
A: 0.53 ± 0.17 mM

Q: `OC[C@H]1O[C@H](O[C@H]2[C@H](O)[C@@H](O)[C@@H](O[C@H]3[C@H](O)[C@@H](O)C(O)O[C@@H]3CO)O[C@@H]2CO)[C@H](O)[C@@H](O)[C@@H]1O` (some centres unmarked) [Maltotriose] was tested. Which Km did it give?
A: 0.44 ± 0.13 mM

Tested on: T1, R_09-02
Assay: p-nitrophenol release at […] nm; Michaelis-Menten fit
Assay type: biochemical
Settings: pH 6.0 (20 mM sodium acetate), 34°C; read-out: K m (mM)^1

Q: Which Km does the source give for `O=[N+]([O-])c1ccc(O[C@@H]2O[C@@H](CO)[C@H](O)[C@H]2O)cc1` [pNPαAf] here?
A: 0.57 ± 0.15 mM

Q: Which Km does the source give for `O=[N+]([O-])c1ccc(O[C@@H]2OC[C@H](O)[C@H](O)[C@H]2O)cc1` [pNPαAp] here?
A: 6.98 ± 0.79 mM

Q: How did the Km turn out when `O=[N+]([O-])c1ccc(O[C@H]2O[C@H](CO)[C@@H](O)[C@H](O)[C@H]2O)cc1` [pNPαG] was run?
A: 4.84 ± 1.27 mM

Q: With `O=[N+]([O-])c1ccc(O[C@H]2O[C@H](CO)[C@@H](O[C@H]3O[C@H](CO)[C@@H](O)[C@H](O)[C@H]3O)[C@H](O)[C@H]2O)cc1` [pNPαMal] as the compound, how does the Km read?
A: 9.74 ± 0.41 mM

Q: With `O=[N+]([O-])c1ccc(O[C@@H]2O[C@H](CO)[C@H](O)[C@H](O)[C@H]2O)cc1` [pNPβGal] as the compound, how does the Km read?
A: 0.37 ± 0.12 mM

Q: How did the Km turn out when `O=[N+]([O-])c1ccc(O[C@@H]2OC[C@@H](O)[C@H](O)[C@H]2O)cc1` [pNPβX] was run?
A: 4.4 ± 0.76 mM

Tested on: T1, R_09-02
Assay: oligosaccharide hydrolysis, released sugar assay; Michaelis-Menten fit
Assay type: biochemical
Settings: pH 6.0 (20 mM sodium acetate), 34°C; read-out: K m (mM)^1
Source text: oligosaccharide hydrolysis, released sugar assay; Michaelis-Menten fit on R_09-02

Q: Which Km does the source give for `OC[C@H]1O[C@H](OC[C@H]2O[C@H](O[C@]3(CO)O[C@H](CO)[C@@H](O)[C@@H]3O)[C@H](O)[C@@H](O)[C@@H]2O)[C@H](O)[C@@H](O)[C@H]1O` [Raffinose] here?
A: 0.035 ± 0.004 mM

Q: For `OC[C@H]1O[C@H](OC[C@H]2O[C@H](OC[C@H]3O[C@H](O[C@]4(CO)O[C@H](CO)[C@@H](O)[C@@H]4O)[C@H](O)[C@@H](O)[C@@H]3O)[C@H](O)[C@@H](O)[C@H]2O)[C@H](O)[C@@H](O)[C@H]1O` [Stachyose], which Km is on record?
A: 1.43 ± 0.84 mM
